# From patent publication US9492554B2, “Methods and compositions related to viral inhibition” (Clemson University Research Foundation (CURF), priority 2009, dated 2016)
# Legend:
# [1] = system: TAR RNA; assay: UV melting of TAR RNA in presence of ligands (Tm, ΔTm); type: binding, HIV-1; conditions: for ΔTm (° C.): TAR RNA with ligand vs control, Table 10; for Tm (° C.): TAR RNA with ligand, control without ligand 69.3
# Procedure: The reactions were done in the presence of 10 mM sodium cacodylate, 0.5 mM EDTA, 0.1 mM MgCl2 pH 7.0. The heating rate was 0.3° C./min.
# UV melting studies of TAR were performed in the presence and absence of various ligands (FIG. 13).
# [2] = biological target: HIV-1 RRE RNA; assay: HIV-1 RRE RNA competition binding assay (fluorescence polarization, Rev peptide probe); conditions: 100 nM RRE RNA, 10 nM Rev peptide, 25° C., 1 hour; Table 16
# Procedure: Before used, HIV-1 RRE RNA (5′-GGUCUGGGCGCAGCGCAAGCUGACGGUACAGGCC-3′, Thermo Scientific) in 10 μM batch in sterile water was heated to 95° C. for 3 min, and then cooled to ambient temperature over 1 hour.
# The relative affinity of each compound for HIV-1 RRE RNA was determined using fluorescence polarization-based competitive binding assay with a fluorescein-labeled HIV-1 Rev peptide. The anisotropy experiments were performed with a Spectra Max Fluorimeter (Molecular Devices) at 25° C., with excitation and emission wavelengths of 485 and 525 nm, respectively. All samples were prepared in 96 well plates in binding buffer (30 mM Hepes, 100 mM KCl, 40 mM NaCl, 10 mM NH4OAc, 10 mM Guanidinium Hydrochloride, 2 mM MgCl2, 0.5 mM EDTA, pH 7.4) with 0.01% triton-X100 (Sigma). The binding data reported for each conjugate are the averages of 3˜5 individual measurements.
# A solution of 100 nM RRE RNA and 10 nM fluorescein-labeled HIV-1 Rev peptide was incubated at 25° C. After 10 min, appropriate concentrations (0 nM to 500 μM) of the antagonists were added; total volume of the incubation solution was […]. After 1 hour, the amount of the dissociated fluorescent probe was determined by the Spectra Max fluorescence plate reader. The experimental dose-response data for a given antagonist were fit to a sigmoidal dose-response nonlinear regression model on GraphPad Prism 4.0 to afford the IC50 values for each conjugates (Table 16).
# [3] = biological target: HIV-1 TAR RNA; assay: HIV-1 TAR RNA competition FRET binding assay (Tat peptide probe); conditions: 100 nM TAR RNA, 100 nM Tat peptide, 25° C., 60 min
# Procedure: Before used, HIV-1 TAR RNA (5′-GGC AGA UCUGAG CCU GGG AGC UCU CUG CC-3′, Thermo Scientific) in 10 μM batch in sterile water was heated to 95° C. for 4.5 min, and then cooled rapidly in ice bath for 5 min. This snap-cooling causes the RNA to adopt the kinetically favored hairpin rather than thermodynamically favored duplexes.
# The relative affinity of each polyamine for HIV-1 TAR RNA was determined using Fluorescence Resonance Energy Transfer (FRET)-based competitive binding assay with a fluorescein-labeled HIV-1 Tat peptide as described in the literature. The fluorescence experiments were performed with a Spectra Max Fluorimeter (Molecular Devices) at 25° C., with excitation and emission wavelengths of 495 and 570 nm, respectively. All samples were prepared in 96 well plates in 1×TK buffer (50 mM Tris, 20 mM KCl, pH=7.4) with 0.1% Trixton-100 (Sigma).
# To a solution of 100 nM HIV-1 TAR RNA and 100 nM fluorescein-labeled HIV-1 Tat peptide, appropriate concentrations (0 nM to 100 μM) of the antagonists were added at 25° C.; total volume of the incubation solution was 80 μL. After 60 min, fluorescence changes of the sample solution were determined by the Spectra Max Fluorimeter Detector.
# [4] = system: cells
SMILES,ΔTm (° C.) [1],Tm (° C.) [1],IC50 [2],IC50 ([3]; Table 17),5% Toxicity microM [4],IC50 ([3]; Table 18)
CN1CCN(c2ccc3nc(-c4ccc(OCc5cn(CCCCCCCCCCn6cc(CCCCc7cn(C[C@H]8OC(OC9C(O)[C@H](N)CC(N)[C@H]9O[C@H]9OC(CN)[C@@H](O)C(O)C9N)C(O)C8O[C@H]8OC(CN)[C@@H](O)C(O)C8N)nn7)nn6)nn5)cc4)[nH]c3c2)CC1 (some centres unmarked) [DPA117],6.3 °C,75.6 °C,15500 ± 6300 nM,1300 ± 200 nM,41 µM,
CN1CCN(c2ccc3nc(-c4ccc(OCCn5cc(CCCc6cn(C[C@H]7OC(OC8C(O)[C@H](N)CC(N)[C@H]8O[C@H]8OC(CN)[C@@H](O)C(O)C8N)C(O)C7O[C@H]7OC(CN)[C@@H](O)C(O)C7N)nn6)nn5)cc4)[nH]c3c2)CC1 (some centres unmarked) [DPA120],3.9 °C,73.2 °C,15300 ± 6900 nM,1700 ± 300 nM,94 µM,
CN1CCN(c2ccc3nc(-c4ccc(OCCn5cc(CCCCCCc6cn(C[C@H]7OC(OC8C(O)[C@H](N)CC(N)[C@H]8O[C@H]8OC(CN)[C@@H](O)C(O)C8N)C(O)C7O[C@H]7OC(CN)[C@@H](O)C(O)C7N)nn6)nn5)cc4)[nH]c3c2)CC1 (some centres unmarked) [DPA122],5.4 °C,74.8 °C,5.4 ± 2.4 nM,825 ± 145 nM,46 µM,
CN1CCN(c2ccc3nc(-c4ccc(OCc5cn(C[C@H]6OC(OC7C(O)[C@H](N)CC(N)[C@H]7O[C@H]7OC(CN)[C@@H](O)C(O)C7N)C(O)C6O[C@H]6OC(CN)[C@@H](O)C(O)C6N)nn5)cc4)[nH]c3c2)CC1 (some centres unmarked) [DPA123],,,768 ± 309 nM,,,155 ± 49 nM
